In CN103910677A, “紫堇定碱衍生物的盐” (Shanghai Yizhi Pharmaceutical Technology Co Ltd, priority 2013, dated 2014):

Experiment: Stability in aqueous solution (extent of free base precipitation from an aqueous solution of the test compound)
Format: physicochemical
Details: known temperature and known period (not specified), 富马酸盐

SMILES: COc1cc2c3c(c1O)-c1c(ccc(OC)c1OC)C[C@@H]3N(C)CC2 [Ⅱˉ表示的富马酸根的式(Ⅲ)化合物, 紫堇定碱富马酸盐]
- aqueous solution stability: 特别稳定 and 异常的稳定
